# Source: patent US20180325793A1, “HIGH-PERFORMANCE COSMETIC PRODUCTS CONTAINING A POLYORGANOSILOXANE AND A DIPEPTIDE” (Evonik Degussa GmbH, priority 2014, published 2018)
# Where a SMILES comes first, the peptide text is derived from it.
# Assay: solubility in water at room temperature
# Type: physicochemical
# From the text: The two pairs DD/LL-methionylmethionine and DL/LD-methionylmethionine are diastereomeric relative to one another and have different physical data. […] These mixtures can be incorporated/dissolved simply in an aqueous phase or an aqueous surfactant phase of a cosmetic composition.
row,solubility at room temperature in water [mg/mL],SMILES
1,21.0,"CSCC[C@H](NC(=O)[C@@H](N)CCSC)C(=O)O [DD/LL-methionylmethionine, methionylmethionine] (H-Met-Met-OH)"
2,0.4,"CSCC[C@H](NC(=O)[C@@H](N)CCSC)C(=O)O [DL/LD-methionylmethionine, methionylmethionine] (H-Met-Met-OH)"
